Results from publication PMC3598705, “Evaluation of Toxicity and Biodegradability of Cholinium Amino Acids Ionic Liquids” (PLoS ONE, 2013).
Values after ≈ are worked out from the molar mass of the structure shown.

Columns and labels:
[1] = test system: L. monocytogenes ATCC 19115; assay: Antimicrobial activity, tube dilution method; assay type: cell-based, Listeria monocytogenes; settings: four repeated experiments; for MIC: 24 h at 37 °C; for MBC: kills 99.9% or more
Experimental: (§1) Antimicrobial activity was measured via the tube dilution method as described previously. Briefly, E. coli, S. aureus, S. enteritidis and L. monocytogenes were cultured in Mueller-Hinton broth for 24 h at 37 °C. A microorganism suspension of 10^6 cfu mL^−1 (cfu, colony forming units) was prepared from each culture. IL solutions (31.3–1500 mM) were prepared with sterilized Mueller-Hinton broth, and then were sterilized by filtration (0.45 µm pore-diameter membrane). The various permutations of microorganism suspension (50 µL) and IL solution (50 µL) were mixed in 96-well microtiter plate. Growth of the microorganisms was determined visually after incubation for 24 h at 37 °C. Controls were conducted under the same conditions: negative controls without microorganisms and positive controls without ILs. The lowest concentration at which there was no visible growth (turbidity) was taken as the minimal inhibitory concentration (MIC). Samples of 20 µL from each well were spread onto Mueller-Hinton agar medium with inactivates (0.3% lecithin, 3% polysorbate 80 and 0.1% L-cysteine) and incubated for 48 h at 37 °C. The lowest concentration of the IL that killed 99.9% or more of the test bacterium was taken as the minimum biocidal concentration (MBC).

E. coli ATCC 8739 = assay: Antimicrobial activity, tube dilution method; assay type: cell-based, Escherichia coli; settings: four repeated experiments; for MIC: 24 h at 37 °C; for MBC: kills 99.9% or more
Experimental: as §1

[2] = test system: S. enteritidis ATCC 14128; assay: Antimicrobial activity, tube dilution method; assay type: cell-based, Salmonella enteritidis; settings: four repeated experiments; for MIC: 24 h at 37 °C; for MBC: kills 99.9% or more
Experimental: as §1

S. aureus ATCC 29213 = assay: Antimicrobial activity, tube dilution method; assay type: cell-based, Staphylococcus aureus; settings: four repeated experiments; for MIC: 24 h at 37 °C; for MBC: kills 99.9% or more
Experimental: as §1

[3] = molecular target: T1, AChE type VI-S (from the electric eel) (Electrophorus electricus, UniProt O42275); assay: AChE inhibition assay (colorimetric, DTNB reduction); assay type: biochemical; settings: DTNB 0.5 mM, AChE 0.05 U mL^−1, acetylthiocholine iodide 0.5 mM, 37 °C, phosphate buffer pH 8.0; mean ± SD; read-out: EC50±SD (toxicity toward AChE)
T1 construct: purchased Sigma–Aldrich, USA type VI-S (catalogue number not given)
Experimental: A colorimetric assay based on reduction of DTNB was used to measure AChE inhibition as described previously, [24], in the presence of a phosphate buffer system in order to eliminate the effects of pH changes on enzyme activity. Briefly, IL solutions were prepared with 0.2 M phosphate buffer (pH 8.0) in 96-well microtiter plates. The enzyme (0.2 U mL^−1, plus 0.25 mg mL^−1 bovine serum albumin in the same phosphate buffer), and DTNB (2 mM, plus 0.185 mg mL^−1 NaHCO3 in the same phosphate buffer) were added to each well and kept at 37 °C for 5 min, and then the reaction was initiated by adding acetylthiocholine iodide (2 mM in the same phosphate buffer). In the experimental reactions, the final concentrations of DTNB, acetylthiocholine iodide and AChE were 0.5 mM, 0.5 mM and 0.05 U mL^−1, respectively. Except where stated otherwise, the concentration range used to calculate EC50 of the [Ch][AA] ILs was 0–50 mM. However, for strongly alkaline [Ch][AA] ILs such as [Ch][Lys], the maximum concentration used was 20 mM in order to avoid changes in enzyme activity due to pH changes that would be caused if the IL exceeded the buffering capacity of the phosphate buffer. Acidic amino acid-derived ILs ([Ch][Asp] and [Ch][Glu]) were used up to 80 mM. The control compounds cholinium chloride ([Ch][Cl]), [Bmim][BF4] and acetone were used at concentration ranges of 0–80 mM, 0–50 mM and 10 mM–2.5 M, respectively. Control experiments without enzyme were carried out under otherwise identical conditions. Reduction of DTNB was monitored at 405 nm and at 10 second intervals in a microplate reader (Wallac 1420 VICTOR3, PerkinElmer, Singapore) over a period of 5 min. Enzyme activity was expressed as ΔOD min^−1 obtained via linear regression analysis. All assays were performed at least in triplicate.
All data were analyzed by One-Way analysis of variance using SPSS 11.5 (SPSS Inc., USA). EC50 values are presented as mean ± standard deviation (SD) from at least three repeats, and confidence intervals (α = 0.05) of EC50 are also presented. The One-Way ANOVA was used to judge if the difference between the different ILs groups was significant. When the p value was<0.05, the difference was considered to be significant.

T1 sequence (O42275 24-633): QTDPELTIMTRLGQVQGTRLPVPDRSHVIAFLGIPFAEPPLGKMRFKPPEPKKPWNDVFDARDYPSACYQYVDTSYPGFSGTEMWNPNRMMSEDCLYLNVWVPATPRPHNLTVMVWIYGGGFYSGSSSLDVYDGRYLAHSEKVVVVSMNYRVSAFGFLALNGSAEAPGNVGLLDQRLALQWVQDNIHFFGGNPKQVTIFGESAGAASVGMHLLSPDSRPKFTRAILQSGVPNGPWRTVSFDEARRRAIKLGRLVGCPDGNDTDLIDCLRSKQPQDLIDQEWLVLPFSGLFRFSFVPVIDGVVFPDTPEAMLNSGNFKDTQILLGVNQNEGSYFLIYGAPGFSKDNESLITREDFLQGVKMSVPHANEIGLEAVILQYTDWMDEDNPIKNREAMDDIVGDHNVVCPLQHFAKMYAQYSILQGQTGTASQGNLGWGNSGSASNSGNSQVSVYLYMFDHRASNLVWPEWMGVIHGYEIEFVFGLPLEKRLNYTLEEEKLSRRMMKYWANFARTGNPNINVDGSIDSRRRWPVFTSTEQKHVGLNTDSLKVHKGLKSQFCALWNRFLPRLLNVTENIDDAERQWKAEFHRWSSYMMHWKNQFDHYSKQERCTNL

| SMILES | MIC [1] [mM] | MBC [1] [mM] | MIC (E. coli ATCC 8739) [mM] | MBC (E. coli ATCC 8739) [mM] | MIC [2] [mM] | MBC [2] [mM] | MIC (S. aureus ATCC 29213) [mM] | MBC (S. aureus ATCC 29213) [mM] | EC50 [3] [µM] |
| --- | --- | --- | --- | --- | --- | --- | --- | --- | --- |
| C[N+](C)(C)CCO.N[C@@H](Cc1ccccc1)C(=O)[O-] [[Ch][Phe]] | 46.9 | 62.5 | 31.3 | 46.9 | 31.3 | 46.9 | 62.5 | 93.8 | 2740 ± 100 |
| C[N+](C)(C)CCO.N[C@@H](Cc1c[nH]c2ccccc12)C(=O)[O-] [[Ch][Trp]] | 31.3 | 46.9 | 23.4 | 31.3 | 23.4 | 31.3 | 46.9 | 62.5 | 2450 ± 20 |
| CC(C)[C@H](N)C(=O)O [[Ch][Val]] | 93.8 (≈ 11000 µg/mL) | 125 (≈ 14600 µg/mL) | 46.9 (≈ 5490 µg/mL) | 62.5 (≈ 7320 µg/mL) | 46.9 (≈ 5490 µg/mL) | 62.5 (≈ 7320 µg/mL) | 93.8 (≈ 11000 µg/mL) | 125 (≈ 14600 µg/mL) | 3060 ± 120 |
